Here are results for five compounds from US20120258156A1, “SHAPED COMPOSITIONS FOR UNIFORM DELIVERY OF A FUNCTIONAL AGENT” (priority 2011, published 2012).

For the series the following is noted: salt at 5% by weight in about 10 g tablets with 75% to 95% by weight calcium hypochlorite; FIGS. 6-8. The source says:
The amount of calcium hypochlorite within each example ranged from 75% by weight to 95% by weight, while the various salts were included at 5% by weight, if at all.
Turning to `O=C([O-])[O-].[Ca+2]` [calcium carbonate], the “effect of additive on dissolution of the calcium hypochlorite” value is “increase the rate of dissolution”. The result for `O=C([O-])[O-].[Na+].[Na+]` [sodium carbonate] reads “slow dissolution”.

Turning to `[Mg+2].[OH-].[OH-]` [magnesium hydroxide], the “effect of additive on dissolution of the calcium hypochlorite” value is given as “slow dissolution”. The result for `O=S(=O)([O-])[O-].[Ca+2]` [calcium sulfate] reads “slow dissolution”; that for `O=S(=O)([O-])[O-].[Mg+2]` [magnesium sulfate], “slow dissolution”.
